Source: US11459338B2, “Heterocyclic compounds as PRMT5 inhibitors” (JUBILANT EPISCRIBE LLC, priority 2018, dated 2022)
Where two headings read alike, the source gives them in different places.

Key:
[1] = biological target: T1, PRMT5/MEP50 (Homo sapiens, UniProt O14744); assay: PRMT5/MEP50 enzyme assay on peptide substrates (3H-SAM Flashplate); assay type: biochemical; settings: PRMT5/MEP50 10 nM, H4 1-15aa peptide 100 nM, 3H-SAM 1 μM
T1 construct: Full-length human PRMT5 (NP_006100)

[2] = tested on: Z-138 cells; assay: Z-138 long term proliferation assay (Cell Titer Glo); assay type: cell-based; settings: Homo sapiens; for GI50: 192 h, Z-138 cells, cell viability, day 8, read-out: PRMT5 Z138 GI50 Day 8 μM; for IC50: Z-138, 192 h, summary of Table 1, read-out: IC50 value (all the three assays): Z138 GI50 Day 8
Summary of the method: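 Z-138 cells exposed to ten-point 3-fold dilutions (top 10 μM, 0.3% DMSO) for 96 h at 37° C., 5% CO2, then re-dosed for four more days.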

[3] = tested on: Symmetric di-methyl arginine in Z-138 cells; assay: Z-138 methylation assay, ELISA for detection of symmetric di-methyl arginine; assay type: cell-based; settings: Homo sapiens
Method: General reagents. […] Iscove's Modified Dulbecco's Medium (IMDM), Horse serum, penicillin-streptomycin, PBS and TMB-ELISA substrate solution were purchased from ThermoFisher Scientific. Symmetric di-methyl arginine antibody was purchased from Cell Signaling Technologies.Anti-SNRPD3/SmD3 antibody was purchased from Sigma-Aldrich.
ELISA for detection of Symmetric di-methyl arginine. […] A compound source plate was prepared by performing ten-point 3-fold dilution in DMSO, such that the final top concentration of the compound was 10 μM, and DMSO was 0.3%. The total volume of compounds added was 20 μL. The cells were incubated for 96 h at 37° C., 5% CO2. Z-138 cells were directly lysed in media with 3× Lysis Buffer (1×: 10 mM HEPES pH7.9, 5 mM MgCl2, 1M NaCl, 0.25M Sucrose, 1% Triton X-100, 1 mM PMSF, Protease & Phosphatase inhibitors). […] Plates were incubated at room temperature for a minimum of 3 h and then washed with PBS-Tween 20 (0.05%). The plates were blocked with 5% BSA at room temperature for 1 h, washed with PBS-Tween 20 and incubated with primary antibody at 4 C overnight.

[4] = Z-138 cells, 96 h (day 4), read-out: PRMT5 Z138 SDMA ELISA Day 4 μM
[5] = Z-138, 96 h, summary of Table 1, read-out: IC50 value (all the three assays): Z138 SDMA ELISA Day 4

T1 sequence (O14744 whole entry): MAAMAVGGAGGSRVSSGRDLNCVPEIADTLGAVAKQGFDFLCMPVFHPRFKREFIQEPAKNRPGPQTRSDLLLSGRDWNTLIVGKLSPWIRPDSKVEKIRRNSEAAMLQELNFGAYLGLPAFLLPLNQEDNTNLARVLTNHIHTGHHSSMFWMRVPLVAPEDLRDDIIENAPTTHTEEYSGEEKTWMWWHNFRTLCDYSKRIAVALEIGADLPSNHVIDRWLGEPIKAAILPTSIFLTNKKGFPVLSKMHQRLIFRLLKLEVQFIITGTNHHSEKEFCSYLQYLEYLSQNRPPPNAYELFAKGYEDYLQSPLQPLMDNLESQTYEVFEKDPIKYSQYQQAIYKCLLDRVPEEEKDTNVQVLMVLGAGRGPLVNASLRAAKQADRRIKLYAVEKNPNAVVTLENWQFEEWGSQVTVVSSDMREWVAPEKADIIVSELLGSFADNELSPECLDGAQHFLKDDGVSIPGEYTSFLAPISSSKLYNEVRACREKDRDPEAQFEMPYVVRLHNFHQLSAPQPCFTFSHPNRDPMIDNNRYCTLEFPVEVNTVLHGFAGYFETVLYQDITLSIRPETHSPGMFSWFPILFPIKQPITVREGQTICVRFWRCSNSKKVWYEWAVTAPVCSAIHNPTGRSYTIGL
T1 sequence (Q9BQA1 whole entry partner): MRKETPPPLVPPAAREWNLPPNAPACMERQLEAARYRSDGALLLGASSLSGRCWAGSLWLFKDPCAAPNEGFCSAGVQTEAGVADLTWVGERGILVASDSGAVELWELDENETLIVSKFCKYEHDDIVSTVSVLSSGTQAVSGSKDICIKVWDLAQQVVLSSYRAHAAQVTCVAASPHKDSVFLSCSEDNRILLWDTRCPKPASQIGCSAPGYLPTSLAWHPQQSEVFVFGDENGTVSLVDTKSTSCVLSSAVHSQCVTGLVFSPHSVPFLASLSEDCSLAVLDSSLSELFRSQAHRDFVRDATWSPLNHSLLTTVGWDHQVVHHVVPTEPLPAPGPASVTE

Cn1cc(-c2cnc3nc(C(=O)NC[C@H](O)CN4CCc5ccccc5C4)cn3c2)cn1 [Example 43, (S)—N-(3-(3,4-dihydroisoquinolin-2(1H)-yl)-2-hydroxypropyl)-6-(1-methyl-1H-pyrazol-4-yl)imidazo[1,2-a]pyrimidine-2-carboxamide] was tested, and the IC50 [1] was greater than 5000 nM, the GI50 [2] was greater than 5000 nM and the IC50 [3, 4] was 10 to 1000 nM.
O=C(NC[C@H](O)CN1CCc2ccccc2C1)c1cn2cc(N3CCC3)ccc2n1 [Example 69, (S)-6-(azetidin-1-yl)-N-(3-(3,4-dihydroisoquinolin-2(1H)-yl)-2-hydroxypropyl)imidazo[1,2-a]pyridine-2-carboxamide] showed an IC50 [1] of 10 to 1000 nM, a GI50 [2] of 1000 to 5000 nM and an IC50 [3, 4] of 10 to 1000 nM.
With Cc1noc(C)c1-c1ccc2nc(C(=O)NC[C@H](O)CN3CCc4ccccc4C3)cn2c1 [Example 15, (S)—N-(3-(3,4-dihydroisoquinolin-2(1H)-yl)-2-hydroxypropyl)-6-(3,5-dimethylisoxazol-4-yl)imidazo[1,2-a]pyridine-2-carboxamide] the IC50 [1] was 10 to 1000 nM, the GI50 [2] was 10 to 1000 nM and the IC50 [2] was 10 to 1000 nM. It also gave an IC50 [3, 5] of 10 to 1000 nM and an IC50 [3, 4] of 10 to 1000 nM.
Compound COc1ccc2nc(C(=O)NCC(O)CN3CCc4ccccc4C3)cn2c1 (stereo not drawn) [Example 9, N-(3-(3,4-dihydroisoquinolin-2(1H)-yl)-2-hydroxypropyl)-6-methoxyimidazo [1,2a]pyridine-2-carboxamide] has an IC50 [1] of 1000 to 5000 nM, a GI50 [2] of 1000 to 5000 nM and an IC50 [3, 4] of 10 to 1000 nM.
CCCC1CCc2nc(C(=O)NCC(O)CN3CCc4ccccc4C3)cn2C1 (stereo not drawn) [Example 106, N-(3-(3,4-dihydroisoquinolin-2(1H)-yl)-2-hydroxypropyl)-6-propyl-5,6,7,8-tetrahydroimidazo[1,2-a]pyridine-2-carboxamide] gave an IC50 [1] of 10 to 1000 nM, a GI50 [2] of 1000 to 5000 nM and an IC50 [3, 4] of 10 to 1000 nM.
For O=C(NCC(O)CN1CCc2ccccc2C1)c1cn2cc(C(F)(F)F)ccc2n1 (stereo not drawn) [Example 1, N-(3-(3,4-dihydroisoquinolin-2(1H)-yl)-2-hydroxypropyl)-6-(trifluoromethyl)imidazo[1,2-a]pyridine-2-carboxamide], the IC50 [1] was 10 to 1000 nM, the GI50 [2] was 10 to 1000 nM and the IC50 [2] was 10 to 1000 nM. For the same compound, the IC50 [3, 5] was 10 to 1000 nM and the IC50 [3, 4] was 10 to 1000 nM.
For O=C(NCC(O)CN1CCc2ccccc2C1)c1cn2c(n1)CCC(c1ccccc1)C2 (stereo not drawn) [Example 110, N-(3-(3,4-dihydroisoquinolin-2(1H)-yl)-2-hydroxypropyl)-6-phenyl-5,6,7,8-tetrahydroimidazo[1,2-a]pyridine-2-carboxamide], the IC50 [1] was 1000 to 5000 nM, the GI50 [2] was 1000 to 5000 nM and the IC50 [3, 4] was 10 to 1000 nM.
O=C(NC[C@H](O)CN1CCc2ccccc2C1)c1cn2c(n1)CCC(C1CC1)C2 (stereo partly drawn) [Example 104, 6-cyclopropyl-N—((S)-3-(3,4-dihydroisoquinolin-2(1H)-yl)-2-hydroxypropyl)-5,6,7,8-tetrahydroimidazo[1,2-a]pyridine-2-carboxamide] was tested, and the GI50 [2] was 1000 to 5000 nM and the IC50 [3, 4] was 10 to 1000 nM.
CCCC1CCn2cc(C(=O)NCC(O)CN3CCc4ccccc4C3)nc2C1 (stereo not drawn) [Example 105, N-(3-(3,4-dihydroisoquinolin-2(1H)-yl)-2-hydroxypropyl)-7-propyl-5,6,7,8 tetrahydroimidazo[1,2-a]pyridine-2-carboxamide] was tested, and the GI50 [2] was 1000 to 5000 nM and the IC50 [3, 4] was 10 to 1000 nM.
Cc1cn2c(C)c(C(=O)NC[C@H](O)CN3CCc4ccccc4C3)nc2cn1 [Example 55, (S)—N-(3-(3,4-dihydroisoquinolin-2(1H)-yl)-2-hydroxypropyl)-3,6-dimethylimidazo[1,2-a]pyrazine-2-carboxamide] showed an IC50 [1] of 1000 to 5000 nM and a GI50 [2] of 1000 to 5000 nM.
CC(C)n1cc(-c2ccc3nc(C(=O)NC[C@H](O)CN4CCc5ccccc5C4)cn3c2)nn1 [Example 37, (S)—N-(3-(3,4-dihydroisoquinolin-2(1H)-yl)-2-hydroxypropyl)-6-(1-isopropyl-1H-1,2,3-triazol-4-yl)imidazo[1,2-a]pyridine-2-carboxamide] showed an IC50 [1] of 10 to 1000 nM and a GI50 [2] of 10 to 1000 nM.
O=C(NC[C@H](O)CN1CCc2ccccc2C1)c1cn2cc(-c3cnn(C4COC4)c3)ccc2n1 [Example 22, (S)—N-(3-(3,4-dihydroisoquinolin-2(1H)-yl)-2-hydroxypropyl)-6-(1-(oxetan-3-yl)-1H-pyrazol-4-yl)imidazo[1,2-a]pyridine-2-carboxamide] gave an IC50 [1] of 10 to 1000 nM and a GI50 [2] of 10 to 1000 nM.
CN(C[C@H](O)CN1CCc2ccccc2C1)C(=O)c1cn2cc(C(F)(F)F)ccc2n1 [Example 88, (R)—N-(3-(3,4-dihydroisoquinolin-2(1H)-yl)-2-hydroxypropyl)-N-methyl-6-(trifluoromethyl)imidazo[1,2-a]pyridine-2-carboxamide] showed an IC50 [1] of 10 to 1000 nM and a GI50 [2] of 10 to 1000 nM.
In the case of Cc1c(C(=O)NC[C@H](O)CN2CCc3ccccc3C2)nc2cnc(-c3ccc(=O)n(C)c3)cn12 [Example 66, (S)—N-(3-(3,4-dihydroisoquinolin-2(1H)-yl)-2-hydroxypropyl)-3-methyl-6-(1-methyl-6-oxo-1,6-dihydropyridin-3-yl)imidazo[1,2-a]pyrazine-2-carboxamide], the IC50 [1] is reported as 10 to 1000 nM and the GI50 [2] is reported as 10 to 1000 nM.
Work on O=C(NC[C@H](O)CN1CCc2ccccc2C1)c1cn2cc(N3CC(F)(F)C3)ncc2n1 [Example 58, (S)-6-(3,3-difluoroazetidin-1-yl)-N-(3-(3,4-dihydroisoquinolin-2(1H)-yl)-2-hydroxypropyl)imidazo[1,2-a]pyrazine-2-carboxamide] yielded an IC50 [1] of 1000 to 5000 nM and a GI50 [2] of 1000 to 5000 nM.
Compound CN(C[C@H](O)CN1CCc2ccccc2C1)C(=O)c1cn2cc(-c3cnn(C)c3)ncc2n1 [Example 92, (R)—N-(3-(3,4-dihydroisoquinolin-2(1H)-yl)-2-hydroxypropyl)-N-methyl-6-(1-methyl-1H-pyrazol-4-yl)imidazo[1,2-a]pyrazine-2-carboxamide] has an IC50 [1] of 10 to 1000 nM and a GI50 [2] of 1000 to 5000 nM.
O=C(NC[C@H](O)CN1CCc2ccccc2C1)c1cn2cc(-c3noc(C4CC4)n3)ccc2n1 [Example 25, (S)-6-(5-cyclopropyl-1,2,4-oxadiazol-3-yl)-N-(3-(3,4-dihydroisoquinolin-2(1H)-yl)-2-hydroxypropyl)imidazo[1,2-a]pyridine-2-carboxamide] showed an IC50 [1] of 10 to 1000 nM and a GI50 [2] of 10 to 1000 nM.
CC(=O)N1CCC(c2ccc3nc(C(=O)NCC(O)CNC4Cc5ccccc5C4)cn3c2)CC1 (stereo not drawn) [Example 98, 6-(1-acetylpiperidin-4-yl)-N-(3-((2,3-dihydro-1H-inden-2-yl)amino)-2-hydroxypropyl)imidazo[1,2-a]pyridine-2-carboxamide] gave an IC50 [1] of 10 to 1000 nM and a GI50 [2] of 10 to 1000 nM.
Compound Cn1cc(-c2ccc3nc(C(=O)NC[C@H](O)CN4CCc5ccccc5C4)cn3n2)cn1 [Example 46, (S)—N-(3-(3,4-dihydroisoquinolin-2(1H)-yl)-2-hydroxypropyl)-6-(1-methyl-1H-pyrazol-4-yl)imidazo[1,2-b]pyridazine-2-carboxamide] has an IC50 [1] of 10 to 1000 nM and a GI50 [2] of 10 to 1000 nM.
Work on CN(C[C@H](O)CN1CCc2ccccc2C1)C(=O)c1cn2cc(-c3ccc(=O)n(C)c3)ncc2n1 [Example 94, (R)—N-(3-(3,4-dihydroisoquinolin-2(1H)-yl)-2-hydroxypropyl)-N-methyl-6-(1-methyl-6-oxo-1,6-dihydropyridin-3-yl)imidazo[1,2-a]pyrazine-2-carboxamide] yielded an IC50 [1] of 1000 to 5000 nM and a GI50 [2] of 1000 to 5000 nM.
